Measured values published in patent EP4696306A1, “ADENOSINE TRIPHOSPHATE SECRETION INHIBITOR, HEPATIC STELLATE CELL ACTIVATION INHIBITOR, HEPATIC STELLATE CELL DEACTIVATOR, HEPATIC FIBROSIS THERAPEUTIC AGENT, NON-ALCOHOLIC STEATOHEPATITIS THERAPEUTIC AGENT, PSORIASIS THERAPEUTIC AGENT, AND USE OF COMPOUND FOR PRODUCING ADENOSINE TRIPHOSPHATE …” (KURUME UNIVERSITY, priority 2023, dated 2024).
Where a name gives a salt, the structure may show the parent alone.

Assays:
[1] = tested on: human epidermal keratinocytes; assay: LPS-stimulated ATP secretion in keratinocytes; format: cell-based; details: 10 µM; 18 hours incubation, LPS 10 µg/ml 10 minutes; N = 8
Protocol: Keratinocytes were cultured in the same manner as in Example 1. Keratinocytes were cultured at 2.5 × 10^4 cells/well in a 24-well plate at 37°C in 5% CO2 for 4 days. The medium was replaced with a test solution (Hanks' balanced salt solution (HBSS) (manufactured by Gibco) supplemented with imeglimin, metformin, or clodronate), and then incubation was performed at 37°C in 5% CO2 for 18 hours. Thereafter, LPS (10 µg/ml) was added thereto, and incubation was further carried out for 10 minutes, followed by collection of 200 µl of the supernatant. The supernatant was immediately treated on a heat block at 95°C for 10 minutes, and ATP in the supernatant was quantified using an ATP Assay Kit - Luminescence (manufactured by Dojindo) (N = 8).

VNUT = target: T1, VNUT (Homo sapiens, UniProt Q9BYT1); assay: Inhibitory effect on VNUT (data not shown); format: biochemical
T1 sequence (Q9BYT1 1-436): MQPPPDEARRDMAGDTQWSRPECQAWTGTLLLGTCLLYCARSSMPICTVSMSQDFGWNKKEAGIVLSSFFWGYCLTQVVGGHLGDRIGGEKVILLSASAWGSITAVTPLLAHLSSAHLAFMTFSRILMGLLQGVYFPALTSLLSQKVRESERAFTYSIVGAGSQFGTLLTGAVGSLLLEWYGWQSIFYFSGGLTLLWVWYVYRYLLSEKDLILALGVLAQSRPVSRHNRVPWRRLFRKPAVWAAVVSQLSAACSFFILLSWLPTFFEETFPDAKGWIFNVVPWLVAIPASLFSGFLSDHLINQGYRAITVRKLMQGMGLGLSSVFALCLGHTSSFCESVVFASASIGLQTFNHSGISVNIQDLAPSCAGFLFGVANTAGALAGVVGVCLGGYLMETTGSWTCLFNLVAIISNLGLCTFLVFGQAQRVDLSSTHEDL

V-ATPase [2] = target: V-ATPase (Homo sapiens, UniProt P38606); assay: Inhibitory effect on V-ATPase (data not shown); format: biochemical
Sequence of V-ATPase (Homo sapiens, UniProt P38606) (P38606 whole entry): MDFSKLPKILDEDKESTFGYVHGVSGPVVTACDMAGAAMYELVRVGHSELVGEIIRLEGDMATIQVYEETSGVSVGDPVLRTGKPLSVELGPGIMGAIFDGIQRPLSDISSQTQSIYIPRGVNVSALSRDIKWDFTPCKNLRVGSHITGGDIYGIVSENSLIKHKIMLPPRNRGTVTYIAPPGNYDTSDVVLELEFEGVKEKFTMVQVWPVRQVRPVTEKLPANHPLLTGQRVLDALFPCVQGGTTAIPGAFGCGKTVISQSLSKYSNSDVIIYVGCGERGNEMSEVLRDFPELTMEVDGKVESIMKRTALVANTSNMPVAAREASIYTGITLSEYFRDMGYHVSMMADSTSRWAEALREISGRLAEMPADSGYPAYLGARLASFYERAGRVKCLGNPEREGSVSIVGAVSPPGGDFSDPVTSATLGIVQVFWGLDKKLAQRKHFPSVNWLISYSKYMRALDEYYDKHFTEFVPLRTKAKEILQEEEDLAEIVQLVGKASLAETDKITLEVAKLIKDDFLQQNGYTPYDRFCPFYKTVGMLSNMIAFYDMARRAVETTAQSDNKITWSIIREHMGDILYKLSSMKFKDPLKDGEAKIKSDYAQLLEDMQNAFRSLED

[3] = tested on: human epidermal keratinocytes; assay: ATP secretion promoted by ionomycin in keratinocytes; format: cell-based; details: 0.1 µM, 6 hours incubation, N = 3
Protocol: Human epidermal keratinocytes (Cryopreserved HEK, Lot 1758, Cell Applications Inc.) were cultured using an Epivita Keratinocyte Growth Medium Kit according to the manufacturer's instructions. The procedure was as follows. A supplement medium was added to a hydrocortisone-containing basal medium included in the medium preparation kit to prepare a complete medium. The medium in the dish was removed by aspiration. The cells were washed with 5 ml of BSS (Gbco), and then the BSS was removed by aspiration. After addition of 5 to 6 ml of trypsin/EDTA solution (Gbco), the dish was incubated at 37°C for 2 minutes. After addition of 5 ml of trypsin neutralization solution, the resulting cell suspension was transferred into two 15-ml Falcon tubes, and centrifuged at 200 × g for 5 minutes. The supernatant was removed by aspiration, and the pelleted cell cluster was suspended in 2 ml of the medium at 4.5 × 10^5 cells/ml. An aliquot of the resulting cell suspension was cryopreserved, while another aliquot was cultured and subjected to measurement.
ATP secretion by human epidermal keratinocytes (hereinafter referred to as "keratinocytes") was measured. Regarding control solutions, Krebs-Ringer HEPES supplemented with 0.2% BSA and 25 mM glucose (hereinafter also referred to as "Krebs/Iono(-)") was used as a negative control, and a solution prepared by adding 5 µM ionomycin to this solution (hereinafter also referred to as "Krebs/Iono(+)") was used as a positive control for ATP secretion. Ionomycin is a Ca^2+ ionophore. Addition of ionomycin to cells is known to promote influx of extracellular Ca^2+ into the cells to increase the intracellular Ca^2+ concentration, resulting in enhancement of ATP secretion. Test solutions were prepared by adding clodronate to Krebs/Iono(-) or Krebs/Iono(+) to a final concentration of 0.1 µM (hereinafter also referred to as "Clo/Iono(-)" or "Clo/Iono(+)", respectively) (N = 3).
Keratinocytes were cultured at 2.5 × 10^4 cells/well in a 24-well plate at 37°C in 5% CO2 for 4 days. The medium was removed by aspiration, replaced with Krebs/Iono(-) or Clo/Iono(-), and incubated at 37°C for 6 hours. These solutions were then removed by aspiration, and the content of each well incubated with Krebs/Iono(-) was replaced with 300 µl of a control solution (Krebs/Iono(-) or Krebs/Iono(+)), while the content of each well incubated with Clo/Iono(-) was replaced with 300 µl of a test solution (Clo/Iono(-) or Clo/Iono(+)). After further incubation at 37°C for 20 minutes, 200 µl of the supernatant was collected. The collected supernatant was immediately treated on a heat block at 95°C for 10 minutes, to inactivate ectonucleotidase. ATP in the supernatant was quantified using a Dojindo ATP assay kit - Luminescence (manufactured by Dojindo Laboratories).
After culturing keratinocytes, the medium was removed by aspiration, and replaced with Krebs/Iono(-), or Krebs/Iono(-) supplemented with 10 µM imeglimin, 0.1 µM EPA, 1 µM EPA, or 10 µM clodronate, followed by incubation for 6 hours. Subsequently, the solution was replaced with either a control solution (Krebs/Iono(-) or Krebs/Iono(+)) or a test solution (Krebs/Iono(+) supplemented with 10 µM imeglimin, 0.1 µM EPA, 1 µM EPA, or 10 µM clodronate), followed by incubation at 37°C for 20 minutes and then collection of 200 µl of the supernatant. The collected supernatant was immediately treated on a heat block at 95°C for 10 minutes to inactivate ectonucleotidase. ATP in the supernatant was quantified using a Dojindo ATP assay kit - Luminescence (manufactured by Dojindo Laboratories).
Keratinocytes were cultured in the same manner as in Example 1, and the medium was replaced with Krebs/Iono(-), Krebs/Iono(-) supplemented with 0.1 µM, 1 µM, or 10 µM imeglimin, or Krebs/Iono(-) supplemented with 0.1 µM, 1 µM, or 10 µM metformin, followed by incubation for 6 hours. […]

[4] = tested on: ATP transport activity in isolated chromaffin granule membranes; assay: ATP transport (3H-ATP uptake) in chromaffin granule membrane vesicles; format: biochemical, bovine; details: MANT-ATP; N = 3
V-ATPase [5] = target: T2, V-ATPase (Bos taurus, UniProt P31404); assay: ATP-dependent proton transport by V-ATPase (acridine orange / oxonol-V fluorescence quenching); format: biochemical, bovine
T2 construct: from tissue; host or cells: bovine adrenal medulla chromaffin granule membranes
T2 sequence (P31404 whole entry, looked up): as the sequence (P38606 whole entry) above, with L10R, I131V, S157N, V199I, T204S, D576E, L590V, S599A counted along it
Protocol: (§1) Chromaffin granule membranes were prepared from adrenal glands collected from slaughtered cattle according to Reference A (Nathan Nelson et al., 1988, Chromaffin Granule Proton Pump, Methods in Enzymology, 157, 619-633). Chromaffin granule membranes prepared by sucrose density gradient centrifugation were suspended in 2 ml of SME buffer (20 mM MOPS-tris (pH 7.0), 0.3 M sucrose, 5 mM EDTA, 10 µg/ml leupeptin, and 10 µg/ml pepstatin) + 25% glycerol, and the resulting suspension was aliquoted and stored at -80°C. Under these conditions, the ATP transport activity, the V-ATPase activity, and the catecholamine transport activity remain fully active for at least one year.
ATP-dependent proton transport by V-ATPase was measured according to Reference B. Proton transport activity was measured using a spectrofluorometer at excitation wavelength of 492 nm and a fluorescence wavelength 540 nm, wherein fluorescence quenching of acridine orange was used as an index (N = 2). The transmembrane potential generated was measured using a spectrofluorometer at an excitation wavelength of 580 nm and a fluorescence wavelength of 630 nm, wherein fluorescence quenching of oxonol-V was used as an index (N = 2). The acridine measurement liquid (2 ml) contained 20 mM MOPS-tris (pH 7.0), 0.2 M sucrose, 0.1 M potassium chloride, 5 mM magnesium acetate, 0.2 µg valinomycin, 2 µM acridine orange, and about 20 µg of chromaffin granules. The oxonol-V measurement liquid (2 ml) contained 20 mM MOPS-tris (pH 7.0), 0.3 M sucrose, 5 mM magnesium acetate, 5 µM oxonol-V, and about 20 µg of chromaffin granules.
(§2) Chromaffin granule membrane vesicles were prepared in the same manner as in Example 5, and uptake of radiolabeled ATP into the vesicles was measured. Transport activity of catecholamine (dopamine) and ATP-dependent proton transport by V-ATPase were also measured in the same manner as in Example 5.

[6] = tested on: ATP transport activity in isolated chromaffin granule membranes; assay: ATP transport (3H-ATP uptake) in chromaffin granule membrane vesicles; format: biochemical, bovine; details: N = 3
Protocol: as §1
An ATP transport inhibition experiment for the chromaffin granule membrane was carried out according to Reference B (Yoshinori Moriyama et al., 2022, Is the vesicular nucleotide transporter a molecular target of eicosapentaenoic acid?, Frontiers in Pharmacology, 103389). About 20 µg of chromaffin granule membranes were added to 0.5 ml of measurement buffer (20 mM MOPS-tris (pH 7.0), 0.3 M sucrose, 5 mM potassium chloride, 5 mM magnesium acetate, 5 mM creatine phosphate, 10 units of creatine kinase, and 1 mM ^3[H]-ATP [15 KBq/assay]), followed by incubation at 30°C for 1 hour. Through a Millipore MCE membrane filter with a pore size 0.45 µm, 0.2 ml of the reaction liquid was filtered by suction. Thereafter, the filter was washed with 10 ml of 20 mM MOPS-tris (pH 7.0), 0.3 M sucrose, 5 mM potassium chloride, and 5 mM magnesium acetate, and dissolved in 10 ml of Clear-sol II (manufactured by Nacalai Tesque, Inc.). The radioactivity was then measured using a liquid scintillation counter (N = 3).
The reaction was initiated by adding 50 mM ^3[H]-ATP to a final concentration of 1 mM. The 50 mM ^3[H]-ATP was prepared by mixing an ATP-tris solution (manufactured by Sigma-Aldrich) with [2,8-^3H] adenosine triphosphate tetrasodium salt (26.0 Ci/mmol) (manufactured by New England Nuclear). PEP was used as a test reagent, and pyruvic acid was used as a negative control. Five minutes before the addition of ATP, PEP or pyruvic acid, as a solution in 20 mM MOPS-tris (pH 7.0), 0.3 M sucrose, 5 mM potassium chloride, and 5 mM magnesium acetate, was added to the measurement liquid to a final PEP concentration of 0.02, 0.05, 0.1, 0.2, 0.4, or 1 mM, or to a final pyruvic acid concentration of 0.5 or 1 mM.
as §2

catecholamine transport = assay: Catecholamine (3H-dopamine) transport in chromaffin granule membranes; format: biochemical, bovine; details: MANT-ATP; N = 3
Protocol: as §1
A catecholamine transport inhibition experiment was carried out in the same manner as the ATP transport experiment except that the experiment used a measurement liquid containing 20 mM MOPS-tris (pH 7.0), 0.1 M sucrose, 0.1 M potassium chloride, 5 mM magnesium acetate, and about 5 µg of chromaffin granule membranes. To 0.5 ml of the measurement liquid, 2 mM ATP was added, and the resulting mixture was incubated at 30°C for about 5 minutes, followed by addition of^3 [H]-dopamine thereto to a final concentration of 10 µM. After further incubation at 30°C for 15 minutes, 0.2 ml of the reaction liquid was subjected to suction filtration through a Millipore MCE membrane filter with a pore size of 0.45 µm, and the radioactivity on the filter was measured (N = 3). The substrate, ^3[H]-dopamine, was prepared by mixing 3,4-[RING-2,5,6-^3H]dihydroxyphenylethylamine (dopamine) (30 Ci/mmol) (manufactured by New England Nuclear) with dopamine hydrochloride (manufactured by LKT Laboratories) such that a final concentration of 0.1 mM was achieved during the use.
as §2

| quenching of acridine orange fluorescence with MANT-ATP as substrate (V-ATPase [5]; addition of 0.1mM MANT-ATP, before addition of ATP) [%] | effect on ATP-dependent proton transport by V-ATPase (V-ATPase [5]; concentrations of up to 100 µM, N = 1) | SMILES | ATP secretion upon LPS stimulation [1] | inhibitory effect on VNUT (VNUT) | inhibitory effect on V-ATPase (V-ATPase [2]) | ATP secretion inhibitory effect, comparison and concentration dependence ([3]; 1 µM, 10 µM) | ATP secretion inhibitory effect [3] | inhibition of ATP transport [4] | ID50 of ATP transport [6] | effect on the catecholamine transport system (catecholamine transport) |
| --- | --- | --- | --- | --- | --- | --- | --- | --- | --- | --- |
|  |  | CN(C)C(=N)N=C(N)N [metformin] | almost completely inhibited | neither imeglimin nor metformin exhibited a strong inhibitory effect | neither imeglimin nor metformin exhibited a strong inhibitory effect | decreased inhibitory effect at higher concentrations | exhibit an ATP secretion inhibitory effect |  |  |  |
| 34 | did not affect | CNc1ccccc1C(=O)O[C@H]1[C@@H](O)[C@H](n2cnc3c(N)ncnc32)O[C@@H]1COP(=O)(O)OP(=O)(O)OP(=O)(O)O [MANT-ATP, 2'/3'-O-(N-methyl-anthraniloyl)-adenosine-5'-triphosphate triethylammonium salt] |  |  |  |  |  | strongly inhibited ATP transport | about 30 mM | hardly affected |
